# Experimental data reported in patent publication US20060148828A1, “Combination comprising a CDK inhibitor and a topoisomerase 1 inhibitor for the treatment of cancer and other proliferative diseases” (Cyclacel Limited, priority 2003, published 2006).
# Where “and” joins values, the source holds several entries; their conditions need not be identical. Equal values may be shown once.
# Legend:
# [1] = tested on: HT29 colon tumor xenografts; assay: In vivo drug efficacy on xenografts in nude mice; set-up: species or system Swiss nu/nu mice; details: for CR nb (complete regression) / Cures nb (tumour-free mice at end) / PR nb (partial response): 9 mice; for TGI % (day): day 21; for Calc growth delay (TGD treated − TGD control): doses as in Treatment column; for Fraction T/C (treated RTV/control RTV × 100): mouse, in vivo
# [2] = tested on: wt-p53 HT29-A4 xenografts; assay: Antitumor effects on xenografts in nude mice; type: in vivo, Swiss nu/nu mice; details: for TGI, tumor growth inhibition: at sacrifice of first control mouse
# [3] = tested on: wt-p53 HT29-A4 cells; assay: Western blot of apoptosis markers (PARP p85, cleaved caspase-3); type: cell-based, human; details: 1 μM CPT-11 for 72 h
# [4] = tested on: wt-p53 HT29-A4 cells; details: 1 μM CPT-11 for 72 h, synchronized cells
# Method: (§1) Cells were maintained in DMEM medium supplemented with 10% fetal calf serum, and under continuous selection with geneticin for the wt-p53 HT29-A4 cell line.
# (§2) Cells were synchronized in G0/G1 by serum starvation for 48 h. Addition of serum and fresh medium released cells from the block and promoted them to cycle. Cell cycle progression was analyzed by BrdU (5-bromo-2′-deoxiuridine; Sigma) incorporation as described (13).
# [5] = tested on: wt-p53 HT29-A4 cells; assay: Cell cycle progression (BrdU incorporation); details: 1 μM CPT-11, up to 36 h, G0/G1 synchronized cells
# Method: as §1, §2
# [6] = alone or in combination with chemotherapy, three to six 4-day cycles
# [7] = in vivo; details: Swiss nu/nu, mouse, po
# [8] = CPT-11 40 mg/kg/day i.p., 8 mice per group
structure (smiles),measurement,setting,value
"CCc1c2c(nc3ccc(OC(=O)N4CCC(N5CCCCC5)CC4)cc13)-c1cc3c(c(=O)n1C2)COC(=O)[C@]3(O)CC [CPT-11, irinotecan]",CR nb (complete regression),[1],0
same,Cures nb (tumour-free mice at end),[1],0
same,PR nb (partial response),[1],0
same,response of mut-p53 xenografts to CPT-11,"[1]; CPT-11 10 and 40 mg/kg/day i.p., data not shown",no response
same,TGI % (day),[1],61.6%
same,Calc growth delay (TGD treated − TGD control),[1],12.6 days
same,Fraction T/C (treated RTV/control RTV × 100),[1],38.4
same,Growth delay (treated/control TGT difference),[2]; CPT-11 10 mg/kg/day i.p.,10 days
same,No. PR (partial response),"[2]; CPT-11 10 mg/kg/day i.p., 10 mice per group",8
same,"TGI, tumor growth inhibition",[2]; CPT-11 10 mg/kg/day i.p.,60%
same,Growth delay (treated/control TGT difference),[2]; CPT-11 40 mg/kg/day i.p.,22 days
same,No. PR (partial response),[2]; [8],7
same,No. cures (tumor-free mice at end of experiment),[2]; [8],1
same,"TGI, tumor growth inhibition","[2]; CPT-11 40 mg/kg/day i.p., 40 mg/kg/day",87% and 86%
same,survival score of mice (tumors reaching 2000 mm3 as a function of time),[2]; CPT-11 at both doses (10 and 40 mg/kg/day),significantly increased the survival score
same,"apoptosis (PARP p85 fragment, caspase-3 activation)",[3],increased apoptosis
same,cell proliferation versus untreated cells and mut-p53 cells,[4],significantly decreased cell proliferation
same,cell cycle blockage,[5],blocked in early S phase
"CC[C@H](CO)Nc1nc(NCc2ccccc2)c2ncn(C(C)C)c2n1 [roscovitine, 6-benzylamino-2-[(R)-1-ethyl-2-hydroxyethylamino]-9-isopropylpurine]",tolerance,[6],well tolerated
same,antitumour activity as single agent,[1]; 400 mg/kg/day for up to six weeks,did not show antitumour activity
same,CR nb (complete regression),[1],0
same,Cures nb (tumour-free mice at end),[1],0
same,PR nb (partial response),[1],0
same,TGI % (day),[1],30.4%
same,Calc growth delay (TGD treated − TGD control),[1],3 days
same,Fraction T/C (treated RTV/control RTV × 100),[1],69.6
same,MTD,[7],400 mg/kg/day
